Experimental findings from patent US20030171347A1, “Sigma receptor antagonists having anti-cocaine properties and uses thereof” (priority 1998, published 2003) are described below.

Data set [1] concerns the target T1, σ1 receptors (Cavia porcellus, UniProt Q60492).
T1 construct: Crude P2 membranes were prepared from guinea pig brain, rat brain, or rat liver; from tissue; host or cells: guinea pig brain (crude P2 membranes)
Description: σ1 receptor competition binding. Details: species or system guinea pig.

The target of data set [2] is T2, Dopamine (D2) receptors (Rattus norvegicus, UniProt P61169).
T2 construct: from tissue; host or cells: rat brain homogenate / P2 membranes
T2 sequence (P61169 whole entry): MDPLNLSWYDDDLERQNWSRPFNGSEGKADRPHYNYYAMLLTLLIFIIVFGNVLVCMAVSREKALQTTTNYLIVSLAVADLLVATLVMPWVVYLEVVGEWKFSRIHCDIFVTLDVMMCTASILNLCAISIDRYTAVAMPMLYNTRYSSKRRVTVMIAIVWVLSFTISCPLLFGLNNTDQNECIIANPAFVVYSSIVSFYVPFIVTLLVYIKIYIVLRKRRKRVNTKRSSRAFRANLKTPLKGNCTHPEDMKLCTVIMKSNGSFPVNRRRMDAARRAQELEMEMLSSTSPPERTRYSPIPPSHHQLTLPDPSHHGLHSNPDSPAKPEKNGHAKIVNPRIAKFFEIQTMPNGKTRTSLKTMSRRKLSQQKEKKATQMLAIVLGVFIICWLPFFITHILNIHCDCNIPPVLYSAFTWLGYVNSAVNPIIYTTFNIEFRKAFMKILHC
Description: Dopamine D2 receptor competition binding ([3H](−)sulpiride).

In data set [3] the target is PCP sites on NMDA receptors (Rattus norvegicus, UniProt P35439). The experiment in a line: PCP site competition binding ([3H]TCP).
Data set [4] addresses 5-HT2 receptors (Rattus norvegicus, UniProt P14842). The experiment in a line: 5-HT2 receptor competition binding ([3H]ketanserin).
Data set [5] concerns the target α1-adrenoceptors. The experiment in a line: α1-adrenoceptor competition binding ([3H]prazosin). The settings on record: rat brain homogenates.
For data set [6], the target named is α2-adrenoceptors. The experiment in a line: α2-adrenoceptor competition binding ([3H]clonidine). As to conditions: rat brain homogenates.
The target in data set [7] is β-adrenoceptors. The experiment in a line: β-adrenoceptor competition binding ([3H]dihydroalprenolol). As to conditions: rat brain homogenates.
In data set [8] the target is 5-HT1 receptors. Description: 5-HT1 receptor competition binding ([3H]5-HT). The settings on record: rat brain homogenates.
Data set [9] addresses T3, muscarinic cholinergic receptors (Rattus norvegicus, UniProt P08482).
T3 construct: from tissue; host or cells: rat brain homogenate / P2 membranes
T3 sequence (P08482 1-460): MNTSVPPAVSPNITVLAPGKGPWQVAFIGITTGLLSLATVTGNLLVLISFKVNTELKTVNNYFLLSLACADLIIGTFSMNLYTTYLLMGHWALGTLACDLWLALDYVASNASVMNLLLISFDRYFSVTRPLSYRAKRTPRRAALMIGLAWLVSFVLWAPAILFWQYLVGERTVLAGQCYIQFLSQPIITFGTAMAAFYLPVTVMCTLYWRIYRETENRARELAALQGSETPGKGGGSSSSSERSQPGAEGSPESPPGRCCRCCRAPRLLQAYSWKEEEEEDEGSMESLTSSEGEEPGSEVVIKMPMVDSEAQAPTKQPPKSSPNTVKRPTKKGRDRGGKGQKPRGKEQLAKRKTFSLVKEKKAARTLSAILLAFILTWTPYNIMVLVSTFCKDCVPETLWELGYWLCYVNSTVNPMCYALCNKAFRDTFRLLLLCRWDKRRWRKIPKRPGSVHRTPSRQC
Description: Muscarinic cholinergic receptor competition binding.

Data set [10] concerns rat red nucleus. The experiment in a line: Acute dystonic reaction after microinjection into the rat red nucleus. The data set is classed as in vivo. As to conditions: alone and against sigma agonists such as DTG.
Data set [11] deals with Male, Swiss Webster mice. Description: Effects of sigma ligands alone on baseline locomotor activity. The data set is classed as in vivo. As to conditions: 30 min; i.p. mg/kg: BD1008 1, BD1067 5, BD1047 30, LR172 5, BD1018 30, BD1063 30, LR132 30, LR176 10, YZ011 0.1, YZ027 1, YZ029 5.
The test system of data set [12] is Male, Swiss Webster mice. The experiment in a line: Attenuation of cocaine-induced locomotor activity. The data set is classed as in vivo. The settings on record: for cocaine stimulated locomotor activity after pre-treatment: same ligand doses as baseline test, 15 min before cocaine 10 mg/kg i.p., 30 min, ANOVA.
In data set [13] the test system is Male, Swiss Webster mice. The experiment in a line: Dose response for the locomotor stimulatory effects of cocaine. Format: in vivo. The settings on record: cocaine 0-20 mg/kg i.p., 30 min.
Data set [14] has as its system Male, Swiss Webster mice. The experiment in a line: Shift of the cocaine convulsion dose curve by sigma receptor agonists. The settings on record: saline pre-treatment, cocaine 0-60 mg/kg i.p.
Data set [15] concerns Male, Swiss Webster mice. The experiment in a line: Dose response for the behavioral toxic effects of cocaine (convulsions, death).
[16] abbreviates: after lethal dose of cocaine 125 mg/kg i.p.
[17] abbreviates: cocaine alone 0-150 mg/kg i.p., observed 30 min.

Where two headings read alike, the source gives them in different places. Some results are limits rather than exact numbers.

T1 sequence (Q60492 whole entry): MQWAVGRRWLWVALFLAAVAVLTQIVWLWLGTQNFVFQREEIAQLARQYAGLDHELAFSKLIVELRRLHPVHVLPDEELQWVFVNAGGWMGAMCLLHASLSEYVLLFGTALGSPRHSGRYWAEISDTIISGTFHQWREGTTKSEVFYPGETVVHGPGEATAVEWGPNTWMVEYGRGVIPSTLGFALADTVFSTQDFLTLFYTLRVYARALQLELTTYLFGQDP
Chain of 5-HT2 receptors (P14842 whole entry): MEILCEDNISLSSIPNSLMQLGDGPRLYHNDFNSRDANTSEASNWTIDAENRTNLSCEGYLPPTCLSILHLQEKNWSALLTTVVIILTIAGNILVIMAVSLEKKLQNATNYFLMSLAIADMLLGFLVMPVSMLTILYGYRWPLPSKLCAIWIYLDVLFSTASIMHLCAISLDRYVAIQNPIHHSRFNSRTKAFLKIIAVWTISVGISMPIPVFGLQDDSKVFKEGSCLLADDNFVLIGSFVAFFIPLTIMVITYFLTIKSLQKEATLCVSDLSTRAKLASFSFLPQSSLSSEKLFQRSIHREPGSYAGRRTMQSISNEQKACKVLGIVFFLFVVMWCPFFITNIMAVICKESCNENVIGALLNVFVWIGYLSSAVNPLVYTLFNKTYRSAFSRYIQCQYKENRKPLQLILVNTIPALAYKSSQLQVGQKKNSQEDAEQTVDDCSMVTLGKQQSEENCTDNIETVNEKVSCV

By Ki is commonly meant a dissociation constant, usually derived from enzyme kinetics or from competition with a known ligand. A lower Ki goes with tighter binding. `CN1CCN(CCc2ccc(Cl)c(Cl)c2)CC1` [BD1063] showed an inhibition constant (Ki) in [1] of 0.009 ± 0.001 µM. Also, the IC50 in data set [2] (rat brain homogenates, [3H](−)sulpiride, read-out: Dopamine (D2)) is above 10 µM; in data set [3] (rat brain homogenates, [3H]TCP, read-out: NMDA (PCP)), above 10 µM; in data set [4] (rat brain homogenates, [3H]ketanserin, read-out: 5-HT2) it was 2.55 ± 2.42 µM; in data set [5] it was above 10 µM; in data set [6], above 10 µM; in data set [7] it was above 10 µM. In addition, the IC50 in [8] was above 10 µM; in [9] (rat brain homogenates, [3H]pirenzepine, read-out: mACh), 9.46 ± 0.75 µM. Further, the “agonist versus antagonist designation (dystonic head postures)” value in data set [10] is given as “functional antagonists”. The “baseline horizontal locomotor activity versus saline” value in data set [11] is on record as “no significant difference”. The “cocaine stimulated locomotor activity after pre-treatment” value in data set [12] was “significant reduction in cocaine stimulated locomotor activity”.
As to `CN(C)CCN(C)CCc1ccc(Cl)c(Cl)c1` [BD1047], in [1], the inhibition constant (Ki) was 0.0009 ± 0.00014 µM. Besides, the IC50 in [2] is above 10 µM; in [3], above 10 µM; in data set [4], 4.67 ± 2.63 µM; in [5] it was above 10 µM; in data set [6], above 10 µM; in [7], 0.145 ± 0.1 µM. Further, the IC50 in data set [8] is above 10 µM; in data set [9] it was 8 ± 1 µM. Further, in data set [10], the “agonist versus antagonist designation (dystonic head postures)” value is “functional antagonists”. In [11], the “baseline horizontal locomotor activity versus saline” value is given as “no significant difference”. In addition, the “cocaine stimulated locomotor activity after pre-treatment” value in [12] is “significant reduction in cocaine stimulated locomotor activity”.
`COC(=O)[C@H]1[C@@H](OC(=O)c2ccccc2)C[C@@H]2CC[C@H]1N2C` [cocaine]: in [12] (saline pre-treatment, cocaine 0-20 mg/kg i.p.), the “ED50 for the locomotor stimulatory effects of cocaine” value is recorded as 6 mg/kg, i.p. In addition, the “dose that produced the peak level of locomotor activity” value in [13] is 10 mg/kg, i.p. For the same molecule, the “ED50 for cocaine-induced convulsions” value in data set [14] was 58 mg/kg, i.p. Moreover, in data set [15] (setting [16]), the “time at which mice are dead” value was “about 4.5 minutes” and the “time at which mice begin convulsing” value was “approximately 2 minutes”. Besides, in data set [15] (setting [17]), the “ED50 for cocaine-induced convulsions” value is 59 mg/kg, i.p and the “LD50 for cocaine-induced lethality” value is on record as 108 mg/kg, i.p.
